# Laboratory results from PMC7044277 (Nature Communications, 2020).
# Where “and” joins values, the source holds several entries; their conditions need not be identical. Identical values can stand only once.
# Key:
# Format in all cases: cell-based
# [1] = target: T1, DRD4 (D4.4 variant) (Homo sapiens, UniProt P21917); assay: β-arrestin2 recruitment (Tango); conditions: for Fig_S10c concentration-response source data, compound alone (replicates): agonist mode
# T1 sequence (P21917 1-419): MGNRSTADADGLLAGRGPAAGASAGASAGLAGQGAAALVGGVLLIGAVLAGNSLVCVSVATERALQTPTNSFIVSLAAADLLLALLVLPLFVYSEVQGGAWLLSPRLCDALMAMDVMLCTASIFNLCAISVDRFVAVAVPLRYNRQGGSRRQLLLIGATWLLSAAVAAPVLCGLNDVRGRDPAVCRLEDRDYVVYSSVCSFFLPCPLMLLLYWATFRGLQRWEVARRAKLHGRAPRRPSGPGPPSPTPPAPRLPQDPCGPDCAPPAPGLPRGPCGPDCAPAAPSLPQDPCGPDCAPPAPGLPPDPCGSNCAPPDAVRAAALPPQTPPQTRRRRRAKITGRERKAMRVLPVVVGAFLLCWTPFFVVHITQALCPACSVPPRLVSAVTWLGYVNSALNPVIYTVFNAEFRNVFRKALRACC
# [2] = target: T1, DRD4 (D4.4 variant); assay: Gαi/o-mediated cAMP inhibition (GloSensor); conditions: DRD4; agonist, cAMP inhibition; read-out: EC50 ± SEM
# [3] = target: 5HT1E (Homo sapiens, UniProt P28566); assay: β-arrestin2 recruitment (Tango); conditions: Fig_S10i
# [4] = target: DRD3 (Homo sapiens, UniProt P35462); assay: Gαi/o-mediated cAMP inhibition (GloSensor); conditions: DRD3, cAMP inhibition
# [5] = target: DRD2 (D2 long receptor) (Homo sapiens, UniProt P14416); assay: Gαi/o-mediated cAMP inhibition (GloSensor split-luciferase cAMP reporter), HEK293T; conditions: DRD2;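 also: compounds applied 15 min at room temperature, then luciferin plus 400 nM isoproterenol to raise cAMP through endogenous β2-adrenergic receptors, luminescence read 15 min later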
# DRD2 (D2 long receptor), sequence (P14416 whole entry): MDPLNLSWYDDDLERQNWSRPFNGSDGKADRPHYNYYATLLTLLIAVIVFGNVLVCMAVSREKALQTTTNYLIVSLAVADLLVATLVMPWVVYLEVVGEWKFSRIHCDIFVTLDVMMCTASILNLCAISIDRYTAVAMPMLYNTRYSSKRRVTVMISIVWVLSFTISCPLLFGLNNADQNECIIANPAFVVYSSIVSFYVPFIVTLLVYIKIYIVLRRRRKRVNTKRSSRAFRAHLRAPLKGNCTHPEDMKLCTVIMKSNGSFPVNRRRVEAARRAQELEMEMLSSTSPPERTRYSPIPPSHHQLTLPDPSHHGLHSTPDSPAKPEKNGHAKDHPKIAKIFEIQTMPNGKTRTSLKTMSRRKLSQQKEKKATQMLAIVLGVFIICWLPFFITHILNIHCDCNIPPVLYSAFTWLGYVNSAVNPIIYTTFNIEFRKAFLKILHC
# 5HT1E, sequence (P28566 whole entry): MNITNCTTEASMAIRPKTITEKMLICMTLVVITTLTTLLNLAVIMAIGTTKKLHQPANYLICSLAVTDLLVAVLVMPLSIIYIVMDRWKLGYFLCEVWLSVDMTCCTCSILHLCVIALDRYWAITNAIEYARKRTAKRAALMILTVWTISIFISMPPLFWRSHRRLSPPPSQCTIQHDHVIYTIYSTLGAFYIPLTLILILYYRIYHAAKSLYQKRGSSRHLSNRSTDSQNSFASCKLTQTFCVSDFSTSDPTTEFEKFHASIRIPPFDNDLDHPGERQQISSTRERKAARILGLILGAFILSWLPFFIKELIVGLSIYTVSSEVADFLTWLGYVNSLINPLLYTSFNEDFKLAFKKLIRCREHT
# DRD3, sequence (P35462 whole entry): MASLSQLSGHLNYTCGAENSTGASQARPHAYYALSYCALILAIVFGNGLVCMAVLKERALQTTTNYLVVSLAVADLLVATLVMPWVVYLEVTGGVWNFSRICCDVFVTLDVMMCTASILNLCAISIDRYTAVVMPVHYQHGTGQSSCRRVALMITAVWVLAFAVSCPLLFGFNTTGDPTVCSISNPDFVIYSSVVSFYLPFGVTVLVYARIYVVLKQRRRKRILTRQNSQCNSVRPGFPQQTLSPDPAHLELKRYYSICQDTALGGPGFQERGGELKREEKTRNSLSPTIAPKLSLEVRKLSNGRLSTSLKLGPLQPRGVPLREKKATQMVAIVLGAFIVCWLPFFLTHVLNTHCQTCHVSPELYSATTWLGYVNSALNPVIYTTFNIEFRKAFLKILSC
structure (smiles),measurement,setting,value
CCOc1cccc2cc([C@H](C)NCC3(O)CCCCC3)oc12 [O4SE6],"Fig_S10c concentration-response source data, compound alone (replicates)",[1]; Log[Drug] -5.52,2.6039 and -1.106 and -1.946 and -0.4701 and 1.404 and 2.39 and 0.8979 and 0.0552 and 0.08381
same,"β-arrestin2 recruitment response at DRD4 (source data, replicate values)",[1]; Log[Drug] -6,2.086
same,"Fig_S10c concentration-response source data, compound alone (replicates)",[1]; Log[Drug] -6,3.584 and -1.188 and -0.584 and -0.6588 and 0.8796 and 1.83 and 0.7762 and 0.03516 and 0.171
same,"β-arrestin2 recruitment response at DRD4 (source data, replicate values)",[1]; Log[Drug] -6.52,1.505 and 1.478 and 5.593 and -1.936 and -0.8155 and 0.5983 and 2.508 and 1.037 and -0.4712
same,"Fig_S10c concentration-response source data, compound alone (replicates)",[1]; Log[Drug] -6.52,1.007 and 4.325 and 1.323 and -0.8974 and 1.527 and -0.05366 and -0.1047 and 0.03541 and 0.08444
same,"β-arrestin2 recruitment response at DRD4 (source data, replicate values)",[1]; Log[Drug] -7,2.288 and 4.238 and 0.7634 and -1.02 and 3.3404 and -2.026 and 1.575 and 0.945 and -0.6741
same,"Fig_S10c concentration-response source data, compound alone (replicates)",[1]; Log[Drug] -7,1.079 and -1.731 and -1.221 and -1.369 and 0.6898 and 0.678 and 1.948 and 0.1059 and 0.1355
same,"β-arrestin2 recruitment response at DRD4 (source data, replicate values)",[1]; Log[Drug] -7.52,1.649 and 0.1326 and 3.251 and -1.741 and -0.5217 and -0.1424 and -0.5236 and 0.6819 and 0.4869
same,"β-arrestin2 recruitment response at DRD4 (source data, replicate values)",[1]; Log[Drug] -8,0.1559 and 0.6003 and -0.215 and 3.989 and -1.66 and -2.089 and 1.626 and 2.253 and 0.1073
same,"β-arrestin2 recruitment response at DRD4 (source data, replicate values)",[1]; Log[Drug] -8.52,0.09319 and 0.08781 and 1.238 and -1.884 and -2.01 and 2.354 and 0.733 and 0.839 and 0.1558
same,"β-arrestin2 recruitment response at DRD4 (source data, replicate values)",[1]; Log[Drug] -9,1.025 and 0.8745 and 0.8477 and 1.633 and -1.008 and -1.74 and 1.682 and 0.09555 and 2.31
same,"β-arrestin2 recruitment response at DRD4 (source data, replicate values)",[1]; Log[Drug] -9.52,1.007 and 1.419 and 7.892 and -0.8689 and -1.296 and 0.8476 and 1.4149 and 0.894 and 0.2094
same,"β-arrestin2 recruitment response at DRD4 (source data, replicate values)",[1]; Log[Drug] -10,1.797 and 0.7921 and 2.561 and -1.944 and -1.43 and -2.445 and 0.6793 and 0.5811 (2×)
same,"β-arrestin2 recruitment response at DRD4 (source data, replicate values)",[1]; Log[Drug] -10.52,1.808 and 0.4319 and 2.3763 and 1.191 and 0.9847 and -1.294 and 0.1099 and -0.2474 and -0.3547
same,"β-arrestin2 recruitment response at DRD4 (source data, replicate values)",[1]; Log[Drug] -11,0.1559 and 1.383 and -0.06631 and 0.9882 and -1.444 and -1.642 and 1.271 and -0.5746 and 1.065
same,"β-arrestin2 recruitment response at DRD4 (source data, replicate values)",[1]; Log[Drug] -11.52,-0.1308 and 0.7778 and 1.385 and -1.934 and -1.503 and -0.7069 and -0.466 and 1.013 and -1.209
same,EC50,[2],> 10 µM
same,"β-arrestin2 recruitment response, agonist mode (single replicate values)",[3]; Log[Drug] -5.52,0.8358
same,"β-arrestin2 recruitment response, agonist mode (single replicate values)",[3]; Log[Drug] -6,-1.216 and -11.5535 and -10.8591 and -6.779 and -25.5686 and -12.8268 and -17.4797 and -14.3235 and -24.758
same,"β-arrestin2 recruitment response, agonist mode (single replicate values)",[3]; Log[Drug] -6.52,-5.589 and -4.67 and -2.933 and -14.8207 and -0.8192 and -17.7203 and -10.9861 and -19.449 and -21.9113
same,"β-arrestin2 recruitment response, agonist mode (single replicate values)",[3]; Log[Drug] -7,-10.5885 and -12.0267 and -4.043 and -9.048 and -20.5356 and 41.9563 and -10.9581 and -15.0865 and -7.033
same,"β-arrestin2 recruitment response, agonist mode (single replicate values)",[3]; Log[Drug] -7.52,-6.825 and 5.648 and -4.719 and -12.9295 and 12.6751 and -7.089 and -18.5156 and -18.3717 and -21.8227
same,"β-arrestin2 recruitment response, agonist mode (single replicate values)",[3]; Log[Drug] -8,-7.977 and -8.538 and -9.216 and -19.7126 and -7.765 and -29.5609 and -0.3541 and 4.202 and -14.1998
same,"β-arrestin2 recruitment response, agonist mode (single replicate values)",[3]; Log[Drug] -8.52,-8.057 and -8.967 and 2.216 and 9.159 and -4.385 and 8.583 and -6.33 and -6.852 and -26.8276
same,"β-arrestin2 recruitment response, agonist mode (single replicate values)",[3]; Log[Drug] -9,0.8147 and -7.106 and -2.942 and -13.4536 and -20.6306 and -0.4912 and -5.667 and -8.764 and -8.801
same,"β-arrestin2 recruitment response, agonist mode (single replicate values)",[3]; Log[Drug] -9.52,-5.189 and -0.1954 and -0.3872 and -6.065 and -25.1931 and 34.39 and 6.445 and -12.4444 and -9.8607
same,"β-arrestin2 recruitment response, agonist mode (single replicate values)",[3]; Log[Drug] -10,5.7233 and -7.338 and -6.569 and -5.352 and 52.7977 and 2.248 and -7.089 and -2.873 and 1.262
same,"β-arrestin2 recruitment response, agonist mode (single replicate values)",[3]; Log[Drug] -10.52,-5.082 and -6.296 and 10.3259 and -3.566 and -12.7533 and -11.9533 and -23.7764 and -18.6704 and -6.074
same,"β-arrestin2 recruitment response, agonist mode (single replicate values)",[3]; Log[Drug] -11,-1.572 and -7.387 and 4.824 and -17.5471 and -8.254 and 2.626 and -10.6703 and -5.6779 and -4.661
same,EC50,"[4]; agonist, read-out: EC50 ± SEM",> 10 µM
same,G protein agonist activity,[4],no detectable agonist activity
same,EC50,"[5]; agonist, Gαi/o-mediated cAMP inhibition, read-out: EC50 ± SEM",0.0185 µM
same,G protein agonist activity,[5]; cAMP inhibition,selective DRD2 agonist
same,Emax,"[5]; HEK-293T, read-out: Emax relative to quinpirole response, cAMP inhibition",91.9%
